# Reference: US20230234920A1, “Azirine Containing Compounds as Anti-Angiogenesis Agents and a Process for the Preparation Thereof” (COUNCIL OF SCIENTIFIC & INDUSTRIAL RESEARCH, priority 2020, published 2023)
# Like-named read-outs stand apart in the source and are kept apart here.
# Key:
# [1] = Intramuscular pharmacokinetic study of chiral isomers 1 and 2; type: in vivo, male Sprague Dawley (SD) rats; details: IM 20 mg/kg
# Description: In vivo pharmacokinetic study was performed in male Sprague Dawley (SD) rats (n=4). Intramuscular (IM) formulation of compound 1 Chiral 1 and 2 were prepared by individually dissolving accurately weighed quantity of compound 1, chiral isomers 1 and 2 (20 mg) in 1 mL of olive oil followed by vortexing for 2 min and sterilize through syringe filter. Blood samples were collected from the retro orbital plexus of rats under light ether anesthesia into microfuge tubes containing heparin as an anti-coagulant at 0.25, 0.5, 1, 3, 5, 7, 9, 24, 30, 48 and 72 hours post-dosing after intramuscular dose. Plasma sample was harvested by centrifuging the blood at 13000 rpm for 10 min on Sigma 1-15 K (Frankfurt, Germany) and stored frozen at −70±10° C. until bioanalysis. Each plasma sample (100 μl) was processed using protein precipitation method using 200 μl acetonitrile containing medicarpine as internal standard (I.S.) as protein precipitant, and 10 μl of the supernatant was injected for LC-MS/MS.
# [2] = Intramuscular pharmacokinetic study of bulk compound 1 and chiral isomers; type: in vivo, male Sprague Dawley (SD) rats; details: IM 20 mg/kg
# Description: In vivo pharmacokinetic study was performed in male Sprague Dawley (SD) rats (n=4). Intramuscular (IM) formulation of bulk of compound 1 as well as chiral isomer-1 and chiral isomer-2 was prepared by dissolving accurately weighed quantity of compound 1 (20 mg) in 1 mL of olive oil followed by vortexing for 2 min and sterilize through syringe filter. Blood samples were collected from the retro orbital plexus of rats under light ether anesthesia into microfuge tubes containing heparin as an anti-coagulant at 0.25, 0.5, 1, 3, 5, 7, 9, 24, 30, 48 and 72 hours post-dosing after intramuscular dose. Plasma sample was harvested by centrifuging the blood at 13000 rpm for 10 min on Sigma 1-15 K (Frankfurt, Germany) and stored frozen at −70±10° C. until bioanalysis. Each plasma sample (100 μl) was processed using protein precipitation method using 200 μl acetonitrile containing medicarpine as internal standard (I.S.) as protein precipitant, and 10 μl of the supernatant was injected for LC-MS/MS.
# HUVECs = assay: Capillary-like tube formation assay (tubulogenesis); type: cell-based, human; details: for tubule formation: 6 h; for IC50: Homo sapiens, HUVEC, read-out: IC50 value
# Description: FIG. 2 represents effect of Compound 1 on capillary tube formation of HUVECs. Endothelial cells in Matrigel were incubated with ECM basal medium in the presence of compound 1 at the indicated concentrations for 6 h. Cell viability was assessed by Calcein-AM dye added few min. before the completion of 6 h. then photographs at 10×magnification were taken using an inverted microscope. The tubule length of HUVECs was quantified by Leica QWin software. Tubule network formation is expressed as a percentage of that vehicle (0.1% DMSO) treated cells (control).
# FIG. 9 represents effect of racemic mixture (chiral isomer 1-1 and chiral isomer 2-1) of Compound 1 on capillary tube formation of HUVECs. Endothelial cells seeded in matrigel were incubated at the indicated concentrations of compound 1 racemic mixtures (1-1 and 2-1) with ECM basal medium for 6 h. Calcein-AM treatment was added to the ECs few minutes before completion of 6 h and pictures were captured using an inverted microscope at 10×magnification. The tubular structures of HUVECs were measured using Leica QWin software and tubulogenesis was expressed as a % of that vehicle (0.1% DMSO) treated cells (control) well.
# HUVEC cells were incubated with or without sunitinib (20 nM) for 6 h at indicated concentrations of chiral isomers of Compound 1 (1-1 and 2-1). Photographs were taken using an inverted microscope at 10×magnification after Calcein-AM treatment to the ECs few minutes before completion of 6 h. The tubule length of HUVECs was quantified by Leica QWin software represented as a % of that vehicle (0.1% DMSO) treated cells (control) well.
# To examine the effect of Compound 1 on angiogenesis, capillary tube formation assay was performed on regular or reduced growth factor Matrigel, taking VEGF (50 ng/mL) treated cells as a positive control and sunitinib (50 nM) as a negative control (FIG. 2). HUVECs seeded onto the matrigel with compound 1 at different concentrations of (10 μM, 5 μM, 1 μM, 800 nM, 500 nM, 250 nM, 125 nM, 75 nM, 50 nM, 25 nM and 10 nM) were incubated for six hours.
# HUVECs (Human Umbilical Vein Endothelial Cells) were seeded onto the pre-coated matrigel (CORNING; 354230) in 96 wells plate at the rate of 11000 cells/well in incomplete ECM basal medium. Control group received vehicle, VEGF at 50 ng/mL as a positive and sunitinib at 50 nM as a negative control were used. Compound 1 at different dose concentrations (10 μM, 5 μM, 1 μM, 800 nM, 500 nM, 250 nM, 100 nM, 75 nM, 50 nM and 25 nM) were employed on seeded HUVECs in incomplete medium. Post 6 h of incubation Calcein-AM (Invitrogen) was added to all the respective groups and then the tubule pattern was observed and photographs were taken using an inverted fluorescent microscope (DM 6000, Leica Microsystems, USA). Relative tubule lengths were measured using Leica Q-Win software version 3.5.1. (Leica Microsystems, Switzerland).
# [3] = 100 nM combined with sunitinib at 20 nM
# [4] = male, Sprague-Dawley, rat, plasma, intramuscular, 0.25 h
# [5] = male, Sprague-Dawley, rat, plasma, intramuscular, 0.5 h
# [6] = male, Sprague-Dawley, rat, plasma, intramuscular, 1 h
# [7] = male, Sprague-Dawley, rat, plasma, intramuscular, 3 h
# [8] = male, Sprague-Dawley, rat, plasma, intramuscular, 5 h
# [9] = male, Sprague-Dawley, rat, plasma, intramuscular, 7 h
# [10] = male, Sprague-Dawley, rat, plasma, intramuscular, 9 h
# [11] = male, Sprague-Dawley, rat, plasma, intramuscular, 24 h
# [12] = male, Sprague-Dawley, rat, plasma, intramuscular, 30 h
# [13] = male, Sprague-Dawley, rat, plasma, intramuscular, 48 h
# [14] = male, Sprague-Dawley, rat, plasma, intramuscular, 72 h
# [15] = endothelial tubule network assay, anti-angiogenic activity
# [16] = male, Sprague-Dawley, rat, plasma, mean ± S.D., n = 4
# [17] = male, Sprague-Dawley, rat, plasma, mean ± S.D., n = 4, read-out: AUC0-72
# [18] = male, Sprague-Dawley, rat, plasma, mean ± S.D., n = 4, read-out: Cmax
compound,measurement,setting,value
CCOC(=O)[C@H]1N=C1CCc1ccc(OC)cc1 [chiral isomer (2-1)],Tmax,[1],3 h
same,Plasma concentration,[1]; 0.25 h,6640 ± 2170 ng/mL
same,Plasma concentration,[1]; 0.5 h,7440 ± 400 ng/mL
same,Plasma concentration,[1]; 1 h,9270 ± 1960 ng/mL
same,Plasma concentration,[1]; 3 h,10820 ± 1130 ng/mL
same,Plasma concentration,[1]; 5 h,7500 ± 560 ng/mL
same,Plasma concentration,[1]; 7 h,4300 ± 620 ng/mL
same,Plasma concentration,[1]; 9 h,2000 ± 660 ng/mL
same,Plasma concentration,[1]; 24 h,180 ± 13 ng/mL
same,Plasma concentration,[1]; 30 h,130 ± 15 ng/mL
same,Plasma concentration,[1]; 48 h,76 ± 4 ng/mL
same,Plasma concentration,[1]; 72 h,44 ± 6 ng/mL
same,AUC0-72,"[1]; mean ± S.D., n = 4",84.90 ± 6.02 µg·h/mL
same,AUC0-∞,"[1]; mean ± S.D., n = 4",85.48 ± 6.1 µg·h/mL
same,Cl,"[1]; mean ± S.D., n = 4",3.83 ± 0.17 mL/min/kg
same,Cmax,"[1]; mean ± S.D., n = 4",10820 ± 1130 ng/mL
same,Vd,"[1]; mean ± S.D., n = 4",3.9 ± 0.24 L/kg
same,t1/2,"[1]; mean ± S.D., n = 4",9.14 ± 0.12 h
same,Plasma concentration,[2]; 0.25 h,409 ± 150 ng/mL
same,Plasma concentration,[2]; 0.5 h,767.6 ± 50 ng/mL
same,Plasma concentration,[2]; 1 h,557 ± 260 ng/mL
same,Plasma concentration,[2]; 3 h,745 ± 120 ng/mL
same,Plasma concentration,[2]; 5 h,762 ± 340 ng/mL
same,Plasma concentration,[2]; 7 h,536 ± 170 ng/mL
same,Plasma concentration,[2]; 9 h,463 ± 370 ng/mL
same,Plasma concentration,[2]; 24 h,323 ± 40 ng/mL
same,Plasma concentration,[2]; 30 h,246 ± 120 ng/mL
same,Plasma concentration,[2]; 48 h,169.3 ± 100 ng/mL
same,Plasma concentration,[2]; 72 h,44.3 ± 6 ng/mL
same,AUC0-72,"[2]; mean ± S.D., n = 4",19.54 ± 3.260 µg·h/mL
same,AUC0-∞,"[2]; mean ± S.D., n = 4",20.644 ± 2.977 µg·h/mL
same,Cl,"[2]; mean ± S.D., n = 4",16.4 ± 2.17 mL/min/kg
same,Cmax,"[2]; mean ± S.D., n = 4",945 ± 143 ng/mL
same,Tmax,"[2]; mean ± S.D., n = 4",3 ± 2 h
same,Vd,"[2]; mean ± S.D., n = 4",24.497 ± 6.339 L/kg
same,t1/2,"[2]; mean ± S.D., n = 4",17.11 ± 2.454 h
same,MRT,"[2]; mean ± S.D., n = 4, in h (unit assumed)",22.671 ± 4.539
same,tubule formation,HUVECs; [3],around 30%
same,tubule formation,HUVECs; 250 nM,100%
same,tubule formation,HUVECs; 500 nM,50%
same,tubule formation,"HUVECs; 500 nM, listed as isomer (2-1)",50%
same,tubule formation,HUVECs; 1 μM,50%
CCOC(=O)[C@H]1N=C1CCc1ccc(OC)cc1 [Chiral isomer (1-1)],concentration at 0.25 h,[1]; [4],1520 ± 360 ng/mL
same,concentration at 0.5 h,[1]; [5],2150 ± 830 ng/mL
same,concentration at 1 h,[1]; [6],3020 ± 1330 ng/mL
same,concentration at 3 h,[1]; [7],3170 ± 940 ng/mL
same,concentration at 5 h,[1]; [8],3570 ± 100 ng/mL
same,concentration at 7 h,[1]; [9],3580 ± 750 ng/mL
same,concentration at 9 h,[1]; [10],4810 ± 1560 ng/mL
same,concentration at 24 h,[1]; [11],1930 ± 380 ng/mL
same,concentration at 30 h,[1]; [12],1550 ± 360 ng/mL
same,concentration at 48 h,[1]; [13],545 ± 90 ng/mL
same,concentration at 72 h,[1]; [14],110 ± 40 ng/mL
same,tubule formation,HUVECs; [3],approximately 15%
same,tubule formation,HUVECs; 250 nM,100%
same,tubule formation,HUVECs; 500 nM,50%
same,tubule formation,HUVECs; 1 μM,50%
"CCOP(=O)(OCC)C1N=C1CCc1ccc(OC)cc1 (stereo not drawn) [Compound 49, Diethyl (3-(4-methoxyphenethyl)-2H-azirin-2-yl)phosphonate]",IC50,HUVECs,250 nM
"COc1ccc(CCC2=NC2C(=O)OC(C)C)cc1 (stereo not drawn) [Compound 20, Isopropyl 3-(4-methoxyphenethyl)-2H-azirine-2-carboxylate]",IC50,HUVECs; [15],750 nM
"CCOC(=O)C1N=C1CCc1cc(OC)c(OC)c(OC)c1 (stereo not drawn) [Compound 12, Ethyl 3-(3,4,5-trimethoxyphenethyl)-2H-azirine-2-carboxylate]",IC50,HUVECs; [15],200 nM
"C=CCCCC1=NC1C(=O)OCC (stereo not drawn) [Compound 2, Ethyl 3-(pent-4-en-1-yl)-2H-azirine-2-carboxylate]",IC50,HUVECs; [15],250 nM
"CCOC(=O)C1N=C1CCc1c2ccccc2cc2ccccc12 (stereo not drawn) [Compound 33, Ethyl 3-(2-(anthracen-9-yl)ethyl)-2H-azirine-2-carboxylate]",IC50,HUVECs; [15],50 nM
same,remarks,HUVECs; remark on IC50 versus sunitinib,comparable to sunitinib
"CCOC(=O)C1N=C1CCc1ccc(I)cc1 (stereo not drawn) [Compound 16, Ethyl 3-(4-iodophenethyl)-2H-azirine-2-carboxylate]",IC50,HUVECs; [15],800 nM
"COc1ccc(CCC2=NC2C(=O)OCCC(C)C)cc1 (stereo not drawn) [Compound 24, Isopentyl 3-(4-methoxyphenethyl)-2H-azirine-2-carboxylate]",IC50,HUVECs; [15],700 nM
"COc1ccc(CCC2=NC2C(=O)OCC(C)C)cc1 (stereo not drawn) [Compound 21, Isobutyl 3-(4-methoxyphenethyl)-2H-azirine-2-carboxylate]",IC50,HUVECs; [15],750 nM
"CCOC(=O)C1N=C1CCc1ccccc1 (stereo not drawn) [Compound 6, Ethyl 3-phenethyl-2H-azirine-2-carboxylate]",IC50,HUVECs; [15],5000 nM
"CCOC(=O)[C@H]1N=C1CCc1ccc(OC)cc1 (single isomer, unassigned) [Chiral isomer (1-1)]",Cl,"[1]; mean ± S.D., n = 4",2.67 ± 0.5 mL/min/kg
same,Vd,"[1]; mean ± S.D., n = 4",3.2 ± 0.84 L/kg
same,AUC(0-inf),[1]; [16],121 ± 24.1 µg·h/mL
same,half-life,[1]; [16],13.3 ± 1.51 h
same,AUC(0-t),[1]; [17],118 ± 24.8 µg·h/mL
same,Cmax,[1]; [18],4810 ± 1560 ng/mL
same,Tmax,"[1]; male, Sprague-Dawley, rat, plasma, read-out: Tmax",9 h
same,Cl,"[2]; mean ± S.D., n = 4",3.03 ± 0.415 mL/min/kg
same,Vd,"[2]; mean ± S.D., n = 4",4.273 ± 1.167 L/kg
same,concentration at 0.25 h,[2]; [4],1680 ± 1060 ng/mL
same,concentration at 0.5 h,[2]; [5],2090 ± 1650 ng/mL
same,concentration at 1 h,[2]; [6],2580 ± 1960 ng/mL
same,concentration at 3 h,[2]; [7],2560 ± 590 ng/mL
same,concentration at 5 h,[2]; [8],2460 ± 880 ng/mL
same,concentration at 7 h,[2]; [9],2120 ± 940 ng/mL
same,concentration at 9 h,[2]; [10],3440 ± 260 ng/mL
same,concentration at 24 h,[2]; [11],2470 ± 570 ng/mL
same,concentration at 30 h,[2]; [12],1730 ± 150 ng/mL
same,concentration at 48 h,[2]; [13],593 ± 220 ng/mL
same,concentration at 72 h,[2]; [14],109 ± 40 ng/mL
same,AUC(0-inf),[2]; [16],111 ± 15 µg·h/mL
same,half-life,[2]; [16],16 ± 2.38 h
same,AUC(0-t),[2]; [17],108 ± 15.9 µg·h/mL
same,Cmax,[2]; [18],3910 ± 847 ng/mL
same,MRT,"[2]; male, Sprague-Dawley, rat, plasma, mean ± S.D., n = 4, read-out: MRT",21 ± 0.463 h
same,Tmax,"[2]; male, Sprague-Dawley, rat, plasma, mean ± S.D., n = 4, read-out: Tmax",6.33 ± 4.62 h
